Reference: patent publication US7999119B2, “Compounds having CRTH2 antagonist activity” (Oxagen Limited, priority 2006, dated 2011)
pIC50: −log10 of the molar value. Values joined by “and” are separate entries in the source; they are usually repeats but may differ in a detail not shown here. Equal entries are not always repeated. Where two headings read alike, the source gives them in different places. Blank lines part the entries; values can stand above or below the molecule they belong to.

Experiments:
[1] = test system: DK-PGD2-induced blood eosinophilia; test: Inhibition of DK-PGD2-induced blood eosinophilia in rats; format: in vivo, rat; details: female rats, oral dosing 30 min before 10 μg DK-PGD2 intracardiac; ED50 from dose-response curve; the values are: ED50
Experimental: Evaluation of Compounds of General Formula (I) as Inhibitors of 13,14-dihydro-15-keto prostaglandin D2 (DK-PGD2)-Induced Blood Eosinophilia in Rats
The test compound was dissolved in DMSO and diluted with water to give a final dosing volume of 2 ml/kg.
Female rats (175-250 g; UH colony) were dosed orally with test compound (or vehicle).
30 min after dosing all animals were anaesthetised with isoflurane.
Following induction of anaesthesia, animals receive an intracardiac injection of 10 μg DK-PGD2 in 0.3 ml heparinised (10 U/ml) saline. Control animals received an injection of 0.3 ml heparinised saline.
60 min after the intracardiac injection, animals were injected with an overdose of pentobarbitone sodium and a blood sample was taken (into heparin) by cardiac puncture while the rat was anaesthetised but not dead.
An aliquot of blood (100 μl) was added to Turk's solution and the total leukocyte count determined with a haemocytometer.
A further aliquot of blood (500 μl) was mixed with an equal volume of 4% Dextran (mw 500,000) and the erythrocytes allowed to settle. A cytospin preparation was made from the resulting leukocyte rich fraction.
Cytospin preparations were fixed with methanol (5 min) and stained with May-Grunwald (5 min) and Giemsa (15 min) stains. Finally cytospins were washed in phosphate buffer (pH6.8) and air dried.
Differential leukocyte counts were obtained from the cytospin preparations.
Blood eosinophil numbers were determined from the total leukocyte count and the percentage eosinophils (differential count).
Because it was impractical to generate sufficient data in any given experiment, data were obtained over a number of replicate experiments. Data from these replicate experiments were pooled, to provide at least 5 animals in each group and a dose-response curve fitted following a significance test (Mann Whitney) to determine whether or not DK-PGD2 caused a significant increase in blood eosinophils (GraphPad, Prism). A difference between groups was taken to be significant when P<0.05. ED50 values were calculated from the dose-response curve.

[2] = test system: PGD2 induced eosinophil shape change; test: Human whole blood eosinophil shape change assay; format: cell-based; details: for IC50: whole blood eosinophil shape change IC50 converted to ng/mL
Experimental: Human Whole Blood Eosinophil Shape Change Assay
Compounds 1 to 3 were assayed for their effect on PGD2 induced eosinophil shape change and were compared with Comparator Compounds A to G.
Shape Change Assay in Whole Blood
Compounds (1 μl, 200× final concentration) were added directly to 200 μl whole blood, mixed well and incubated for 15 min, 37° C., 5% CO2. After this time, cell shape was fixed by addition of 300 μl Cytofix™ buffer (BD Biosciences), 15 min on ice. 10 ml RBC lysis buffer was added to the fixed cells, incubated 5 min, at room temperature and centrifuged, 300×g for 5 min. Supernatant (containing lysed red cells) was removed and the lysis step was repeated. Leukocytes were resuspended in 250 μl RPMI/10% FCS and shape change analysed by FACS. Eosinophils were gated out based on their autofluorescence and 2000 eosinophil events were counted per sample. Data were analysed in triplicate.

[3] = Pharmacokinetics following oral administration in the rat; format: in vivo; details: for AUC(0-inf) / Cmax / Tmax / half-life / AUCinf / T½: 3 mg/kg p.o
Experimental: Investigation of Pharmacokinetics of Compounds of General Formula (I) Following Oral Administration in the Rat
Rats were weighed on the day of dosing.
The test material was prepared as a 0.3 mg/mL suspension in 1% carboxy-methyl-cellulose (CMC).
Three groups of 3 rats were dosed as follows:
Doses were administered as a single oral dose using a gavage tube at a constant dose volume of 10 mL/kg.
At each sampling time point blood samples (approximately 0.3 mL) was taken from a catheter inserted into a lateral tail vein prior to the start of the experiment. The final blood sample (approximately 2 mL) from each animal was taken by cardiac puncture under isoflurane anaesthesia following which the animal was killed by exsanguination. Blood samples were taken into individual heparinised containers. Blood samples were collected at the following times post-dose:
Following collection, the blood samples were centrifuged (approximately 10,000×g, 2 min at 4° C.) and the plasma stored as one aliquot at approximately −20° C. pending analysis of drug concentrations by LC-MS/MS.
The plasma samples were analysed for test material concentrations at BioDynamics using an LC-MS/MS method developed at BioDynamics.

[4] = Homo sapiens, Eosinophil, 10 nm PGD2-induced eosinophil shape change, human whole blood, read-out: Whole Blood IC50
[5] = Homo sapiens, Eosinophil, Table 12 summary of whole blood eosinophil shape change IC50, read-out: IC50 (μmol)
[6] = male, rat, plasma, po, 3 mg/kg, rat, 3 mg/kg oral, 0.25 h, individual male animals, read-out: Concentration in Blood
[7] = male, rat, plasma, po, 3 mg/kg, rat, 3 mg/kg oral, 0.25 h, mean, read-out: Concentration in Blood, Mean
[8] = male, rat, plasma, po, 3 mg/kg, rat, 3 mg/kg oral, 0.5 h, individual male animals, read-out: Concentration in Blood
[9] = male, rat, plasma, po, 3 mg/kg, rat, 3 mg/kg oral, 0.5 h, mean, read-out: Concentration in Blood, Mean
[10] = male, rat, plasma, po, 3 mg/kg, rat, 3 mg/kg oral, 1 h, individual male animals, read-out: Concentration in Blood
[11] = male, rat, plasma, po, 3 mg/kg, rat, 3 mg/kg oral, 1 h, mean, read-out: Concentration in Blood, Mean
[12] = male, rat, plasma, po, 3 mg/kg, rat, 3 mg/kg oral, 2 h, individual male animals, read-out: Concentration in Blood
[13] = male, rat, plasma, po, 3 mg/kg, rat, 3 mg/kg oral, 2 h, mean, read-out: Concentration in Blood, Mean
[14] = male, rat, plasma, po, 3 mg/kg, rat, 3 mg/kg oral, 4 h, individual male animals, read-out: Concentration in Blood
[15] = male, rat, plasma, po, 3 mg/kg, rat, 3 mg/kg oral, 4 h, mean, read-out: Concentration in Blood, Mean
[16] = male, rat, plasma, po, 3 mg/kg, rat, 3 mg/kg oral, 6 h, mean, read-out: Concentration in Blood, Mean
[17] = male, rat, plasma, po, 3 mg/kg, rat, 3 mg/kg oral, 8 h, mean, read-out: Concentration in Blood, Mean
[18] = male, rat, plasma, po, 3 mg/kg, rat, 3 mg/kg oral, 12 h, mean, read-out: Concentration in Blood, Mean
[19] = male, rat, plasma, po, 3 mg/kg, rat, individual male animals, read-out: AUCinf
[20] = male, rat, plasma, po, 3 mg/kg, rat, individual male animals, read-out: Cmax
[21] = male, rat, plasma, po, 3 mg/kg, rat, individual male animals, read-out: Tmax
[22] = male, rat, plasma, po, 3 mg/kg, rat, mean, summary without unit (Table 12), read-out: AUCinf (mean)
[23] = male, rat, plasma, po, 3 mg/kg, rat, mean, summary without unit (Table 12), read-out: Cmax (mean)
[24] = male, rat, plasma, po, 3 mg/kg, rat, mean, read-out: AUCinf, Mean
[25] = male, rat, plasma, po, 3 mg/kg, rat, mean, read-out: Cmax, Mean
[26] = male, rat, plasma, po, 3 mg/kg, rat, mean, read-out: Tmax, Mean
[27] = male, rat, plasma, po, 3 mg/kg, rat, mean, read-out: T½, Mean (converted)
[28] = rat, 3 mg/kg oral, 0.25 h, individual male animals, 3 mg/kg
[29] = rat, 3 mg/kg oral, 0.5 h, individual male animals, 3 mg/kg
[30] = rat, 3 mg/kg oral, 1 h, individual male animals, 3 mg/kg
[31] = rat, 3 mg/kg oral, 2 h, individual male animals, 3 mg/kg
[32] = rat, 3 mg/kg oral, 4 h, individual male animals, 3 mg/kg
[33] = rat, 3 mg/kg oral, 6 h, individual male animals, 3 mg/kg
[34] = rat, 3 mg/kg oral, 8 h, individual male animals, 3 mg/kg
[35] = rat, 3 mg/kg oral, 12 h, individual male animals, 3 mg/kg
[36] = rat, 3 mg/kg oral, 24 h, individual male animals, 3 mg/kg
[37] = rat, individual male animals, 3 mg/kg

- pIC50 [2, 4]: 8.30
- pIC50 [2, 5]: 8.30
- IC50 [2]: 2.2 ng/mL
- concentration at 0.25 h [3, 6]: 1160 ng/mL
- concentration at 0.25 h [3, 7]: 1450 ng/mL
- concentration at 0.5 h [3, 8]: 2680 ng/mL
- concentration at 0.5 h [3, 9]: 2910 ng/mL
- concentration at 1 h [3, 10]: 3840 ng/mL
- concentration at 1 h [3, 11]: 4000 ng/mL
- concentration at 2 h [3, 12]: 4330 ng/mL
- concentration at 2 h [3, 13]: 3950 ng/mL
- concentration at 4 h [3, 14]: 1890 ng/mL
- concentration at 4 h [3, 15]: 1540 ng/mL
- concentration at 6 h [3, 16]: 1050 ng/mL
- concentration at 8 h [3, 17]: 734 ng/mL
- concentration at 12 h ([3]; male, rat, plasma, po, 3 mg/kg, rat, 3 mg/kg oral, 12 h, individual male animals, read-out: Concentration in Blood): 455 ng/mL
- concentration at 12 h [3, 18]: 375 ng/mL
- concentration at 24 h ([3]; male, rat, plasma, po, 3 mg/kg, rat, 3 mg/kg oral, 24 h, mean, read-out: Concentration in Blood, Mean): 47.4 ng/mL
- AUC(0-inf) [3, 19]: 23800 ng·h/mL
- Cmax [3, 20]: 4330 ng/mL
- Tmax [3, 21]: 2 h
- half-life ([3]; male, rat, plasma, po, 3 mg/kg, rat, individual male animals, read-out: T½ (converted)): 4.11 h
- AUC(0-inf) [3, 22]: 19200 ng·h/mL
- Cmax [3, 23]: 4160 ng/mL
- AUC(0-inf) [3, 24]: 19300 ng·h/mL
- Cmax [3, 25]: 4160 ng/mL
- Tmax [3, 26]: 1.3 h
- half-life [3, 27]: 3.6 h
- Fold over IC50 at 12 h ([3]; mean blood concentration at 12 h (rat, 3 mg/kg p.o.) divided by whole blood IC50 in ng/ml): 170
- Concentration in Blood [3, 28]: 1496.0 ng/mL and 1678.0 ng/mL
- Concentration in Blood [3, 29]: 2792.4 ng/mL and 3264.7 ng/mL
- Concentration in Blood [3, 30]: 3895.3 ng/mL and 4262.9 ng/mL
- Concentration in Blood [3, 31]: 3454.7 ng/mL and 4051.1 ng/mL
- Concentration in Blood [3, 32]: 1046.5 ng/mL and 1670.8 ng/mL
- Concentration in Blood [3, 35]: 256.6 ng/mL and 412.8 ng/mL
- Concentration in Blood [3, 36]: 68.5 ng/mL and 10.2 ng/mL and 63.5 ng/mL
- AUCinf [3, 37]: 14846 ng·h/mL and 21731 ng·h/mL
- Cmax [3, 37]: 3895 ng/mL and 4263 ng/mL
- Tmax [3, 37]: 1 h
- T½ [3, 37]: 3.07 h and 4.59 h
Compound: Cc1c(Cc2ccccc2S(=O)(=O)c2ccccc2)c2cc(F)ccc2n1CC(=O)O [Compound 1, 2-(5-fluoro-2-methyl-3-(2-(phenylsulfonyl)benzyl)-1H-indol-1-yl)acetic acid]
- Potency in inhibition of DK-PGD2-induced blood eosinophilia [1]: 2.5 µg/kg
- Concentration in Blood [3, 33]: 1423.7 ng/mL and 547.5 ng/mL and 1183.1 ng/mL
- Concentration in Blood [3, 34]: 1099.9 ng/mL and 404.7 ng/mL and 696.2 ng/mL

- pIC50 [2, 4]: 8.70
- pIC50 [2, 5]: 8.70
- IC50 ([2]; Homo sapiens, Eosinophil, read-out: IC50): 0.9 ng/mL
- pIC50 ([2]; Homo sapiens, Eosinophil, read-out: IC50 in the whole blood eosinophil shape change assay): 8.70
- concentration at 0.25 h [3, 6]: 1570 ng/mL
- concentration at 0.25 h [3, 7]: 1490 ng/mL
- concentration at 0.5 h [3, 8]: 2610 ng/mL
- concentration at 0.5 h [3, 9]: 2220 ng/mL
- concentration at 1 h [3, 10]: 2960 ng/mL
- concentration at 1 h [3, 11]: 2900 ng/mL
- concentration at 2 h [3, 12]: 2240 ng/mL
- concentration at 2 h [3, 13]: 2500 ng/mL
- concentration at 4 h [3, 14]: 1130 ng/mL
- concentration at 4 h [3, 15]: 1370 ng/mL
- concentration at 6 h [3, 16]: 640 ng/mL
- concentration at 8 h [3, 17]: 450 ng/mL
- concentration at 12 h [3, 18]: 100 ng/mL
- AUC(0-inf) [3, 19]: 13200 ng·h/mL
- Cmax [3, 20]: 2960 ng/mL
- Tmax [3, 21]: 1 h
- AUC(0-inf) [3, 22]: 11700 ng·h/mL
- Cmax [3, 23]: 2950 ng/mL
- AUC(0-inf) [3, 24]: 11700 ng·h/mL
- Cmax [3, 25]: 2950 ng/mL
- Tmax [3, 26]: 1.3 h
- half-life [3, 27]: 3.7 h
- Concentration in Blood [3, 28]: 1297.7 ng/mL and 1608.1 ng/mL
- Concentration in Blood [3, 29]: 1770.2 ng/mL and 2276.6 ng/mL
- Concentration in Blood [3, 30]: 2367.1 ng/mL and 3366.1 ng/mL
- Concentration in Blood [3, 31]: 2536.9 ng/mL and 2717.6 ng/mL
- Concentration in Blood [3, 32]: 1319.1 ng/mL and 1666.5 ng/mL
- Concentration in Blood [3, 36]: 60.5 ng/mL and 0.0 ng/mL (2×)
- AUCinf [3, 37]: 10179 ng·h/mL and 15677 ng·h/mL
- Cmax [3, 37]: 2537.0 ng/mL and 3366.0 ng/mL
- Tmax [3, 37]: 2.0 h
- T½ [3, 37]: 6 hours and 2 hours (2×)
Compound: Cc1c(Cc2ccccc2S(=O)(=O)c2ccc(Cl)cc2)c2cc(F)ccc2n1CC(=O)O [Compound 2, 2-(3-(2-(4-chlorophenylsulfonyl)benzyl)-5-fluoro-2-methyl-1H-indol-1-yl)acetic acid]
- Potency in inhibition of DK-PGD2-induced blood eosinophilia [1]: 10 µg/kg
- Concentration in Blood [3, 33]: 519.6 ng/mL and 368.3 ng/mL and 1032.6 ng/mL
- Concentration in Blood [3, 34]: 423.7 ng/mL and 186.7 ng/mL and 740.4 ng/mL
- Concentration in Blood [3, 35]: 144.7 ng/mL and 28.2 ng/mL and 128.1 ng/mL
